According to US4716171A (Etablissements Nativelle S.A., priority 1981, dated 1987):
Where two headings read alike, the source gives them in different places.

Key:
[1] = LD50 in mice (Lichfield and Wilcoxon method); settings: mouse, in vivo, ip, mice (male and female), intraperitoneal, comparison; read-out: LD50 (average values)
Source text: For example, the results obtained with 3S-hydroxy-10,11-dihydroquinidine in the form of the hydrochloride salt are shown in Table 1 below.

[2] = Electrophysiological study in anesthetized dog (closed thorax, bipolar catheter-electrodes); type: in vivo
Description: The study was carried out on a dog anesthetized with pentobarbital, with a closed thorax, by means of bipolar catheter-electrodes introduced into the cardiac cavities by transcutaneous venous and arterial tracts.
In this manner and by means of a programmable stimulator, sinusal automaticity, intracardiac conduction times, and the effective and functional cardiac refractory periods can be measured.

arrhythmia = assay: Test with aconitine (arrhythmia appearance time); type: in vivo, rats; settings: for Appearance Time, ESV (ventricular extrasystoles): control 98; for Appearance Time, TV (ventricular tachycardium): control 112; for Appearance Time, FV (ventricular fibrillation): control 228; for Appearance Time, ESV (ventricular extrasystoles), %: vs control 98; for Appearance Time, TV (ventricular tachycardium), %: vs control 112
Source text: (§1) Antiarrhythmic activity in mice was observed by means of the Lawson test, using the method described by J. W. Lawson, J. Pharmacol. Exp. Therp., 160, 22-31 (1968) and Cr. Narcisse et al. Ann. Pharma. Fr., 37, 325-330 (1979), in rats by the test with aconitine of S. Witchitz et al. Coeur Med. Int., X(2), 281-286 (1971), and in dogs by the Harris test described in Circulation, 1, 1318 (1950). 3S-hydroxy-10,11-dihydroquinidine was used for each of these three tests.

ventricular arrhythmia = assay: Harris test; type: in vivo, dogs; settings: for % Protection / % Protection, Average: dogs, I.V.; for % Protection, Average: average of Exp. 1 and 2
Source text: as §1

[3] = design: species or system dogs; settings: dog, in vivo, iv
Description: The parameters were recorded by means of: catheters connected to pressure sensors (arterial pressure, left ventricular pressure and its first dp/dt derivative); electromagnetic flowmeter on the aorta (aortic flow); electrocardiograph; strain gauge placed on the left ventricular myocardium (myocardiac contraction force).

[4] = test system: anoxic ventricular fibrillation; assay: Lawson test (antifibrillatory power); type: in vivo, mice
Source text: as §1
The Lawson test enables the study of the cardiac antifibrillatory power of the derivatives of the present invention. […] The efficacity dose 50 (ED50) indicated in Table 4 is the dose which protects half of the mice against anoxic ventricular fibrillation.

C=C[C@H]1C[N@@]2CC[C@H]1C[C@@H]2[C@@H](O)c1ccnc2ccc(OC)cc12 [Quinidine, quinidine, reference compound]
LD50 [1]: 225 to 235 mg/kg | Cardiac Cycle, percentage of variation ([2]; 1 mg/kg): +2.7% | HV (HissPurkinje conduction), percentage of variation ([2]; 1 mg/kg): 0% | PREA (Effective auricular refractory period), percentage of variation ([2]; 1 mg/kg): +2% | PREV (Effective ventricular refractory period), percentage of variation ([2]; 1 mg/kg): +3.3% | PRFN (Functional nodal refractory period), percentage of variation ([2]; 1 mg/kg): +3% | QRS (Intraventricular conduction), percentage of variation ([2]; 1 mg/kg): 0% | QTc (Corrected repolarization time), percentage of variation ([2]; 1 mg/kg): +1.8% | SH (AuriculoHissian conduction), percentage of variation ([2]; 1 mg/kg): +3.5% | Cardiac Cycle, percentage of variation ([2]; 5 mg/kg): +5.1% | HV (HissPurkinje conduction), percentage of variation ([2]; 5 mg/kg): +8.7% | PREA (Effective auricular refractory period), percentage of variation ([2]; 5 mg/kg): +3.5% | PREV (Effective ventricular refractory period), percentage of variation ([2]; 5 mg/kg): +6.5% | PRFN (Functional nodal refractory period), percentage of variation ([2]; 5 mg/kg): +5% | QRS (Intraventricular conduction), percentage of variation ([2]; 5 mg/kg): 0% | QTc (Corrected repolarization time), percentage of variation ([2]; 5 mg/kg): 0% | SH (AuriculoHissian conduction), percentage of variation ([2]; 5 mg/kg): +7.2% | Cardiac Cycle, percentage of variation ([2]; 10 mg/kg): +9.2% | HV (HissPurkinje conduction), percentage of variation ([2]; 10 mg/kg): +17.7% | PREA (Effective auricular refractory period), percentage of variation ([2]; 10 mg/kg): +14.4% | PREV (Effective ventricular refractory period), percentage of variation ([2]; 10 mg/kg): +8.5% | PRFN (Functional nodal refractory period), percentage of variation ([2]; 10 mg/kg): +9% | QRS (Intraventricular conduction), percentage of variation ([2]; 10 mg/kg): 0% | QTc (Corrected repolarization time), percentage of variation ([2]; 10 mg/kg): +1.5% | SH (AuriculoHissian conduction), percentage of variation ([2]; 10 mg/kg): +10.5% | Appearance Time, ESV (ventricular extrasystoles) (arrhythmia; rats, I.V., 10 mg/kg): 150 min | Appearance Time, TV (ventricular tachycardium) (arrhythmia; rats, I.V., 10 mg/kg): 171 min | Appearance Time, FV (ventricular fibrillation) (arrhythmia; rats, I.V., 10 mg/kg): 474 min | Appearance Time, ESV (ventricular extrasystoles), % (arrhythmia; rats, I.V., 10 mg/kg): +53% | Appearance Time, TV (ventricular tachycardium), % (arrhythmia; rats, I.V., 10 mg/kg): +52% | % Protection (ventricular arrhythmia; quinidine, 6 mg/kg, 1 h): 21% | % Protection (ventricular arrhythmia; quinidine, +5 mg, 1 h): 55% | % Protection (ventricular arrhythmia; quinidine, +5 mg, 2 h): 52%

CC[C@@]1(O)CN2CC[C@H]1C[C@@H]2[C@@H](O)c1ccnc2ccc(OC)cc12 [3S-hydroxy-10,11-dihydroquinidine, 3S-Hydroxy-10,11-dihydroquinidine]
cardiac flow (in words) [3]: no significant change before a cumulative dose of 20 mg/kg is reached | cardiac frequency (in words) [3]: not significantly modified before a cumulative dose of 20 mg/kg is reached | myocardiac contraction force (in words) [3]: no change | systolic arterial pressure (in words) [3]: diminishes progressively with the dose, the effects only becoming considerable for a cumulative dose greater than 10 mg/kg | Cardiac Flow, variation in relation to initial value ([3]; 0.5 mg/kg): -50 ± 50 mL/min | Cardiac Frequency, variation in relation to initial value ([3]; 0.5 mg/kg): -2 ± 6 beats/min. | Force of Contractions of the Myocardium, variation in relation to initial value ([3]; 0.5 mg/kg): -3 ± 3 g | Systolic Arterial Pressure, variation in relation to initial value ([3]; 0.5 mg/kg): -11 ± 4 mmHg | Total Peripheral Resistance, variation in relation to initial value ([3]; 0.5 mg/kg): -382 ± 180 | Cardiac Flow, variation in relation to initial value ([3]; 4 mg/kg): -90 ± 143 mL/min | Cardiac Frequency, variation in relation to initial value ([3]; 4 mg/kg): -5 ± 2 beats/min. | Force of Contractions of the Myocardium, variation in relation to initial value ([3]; 4 mg/kg): 0 ± 1 g | Systolic Arterial Pressure, variation in relation to initial value ([3]; 4 mg/kg): -20 ± 5 mmHg | Total Peripheral Resistance, variation in relation to initial value ([3]; 4 mg/kg): -457 ± 277 | Cardiac Flow, variation in relation to initial value ([3]; 5 mg/kg): -316 ± 412 mL/min | Cardiac Frequency, variation in relation to initial value ([3]; 5 mg/kg): -3 ± 16 beats/min. | Force of Contractions of the Myocardium, variation in relation to initial value ([3]; 5 mg/kg): 2 ± 1 g | Systolic Arterial Pressure, variation in relation to initial value ([3]; 5 mg/kg): -23 ± 7 mmHg | Total Peripheral Resistance, variation in relation to initial value ([3]; 5 mg/kg): -376 ± 227 | Cardiac Flow, variation in relation to initial value ([3]; 10 mg/kg): -775 ± 498 mL/min | Cardiac Frequency, variation in relation to initial value ([3]; 10 mg/kg): -15 ± 13 beats/min. | Force of Contractions of the Myocardium, variation in relation to initial value ([3]; 10 mg/kg): 8 ± 1 g | Systolic Arterial Pressure, variation in relation to initial value ([3]; 10 mg/kg): -36 ± 13 mmHg | Total Peripheral Resistance, variation in relation to initial value ([3]; 10 mg/kg): -91 | Cardiac Cycle, percentage of variation ([2]; 1 mg/kg): +4.5% | HV (HissPurkinje conduction), percentage of variation ([2]; 1 mg/kg): +10.8% | PREA (Effective auricular refractory period), percentage of variation ([2]; 1 mg/kg): +8% | PREV (Effective ventricular refractory period), percentage of variation ([2]; 1 mg/kg): -1.5% | PRFN (Functional nodal refractory period), percentage of variation ([2]; 1 mg/kg): 0% | QRS (Intraventricular conduction), percentage of variation ([2]; 1 mg/kg): +14.4% | QTc (Corrected repolarization time), percentage of variation ([2]; 1 mg/kg): +2.8% | SH (AuriculoHissian conduction), percentage of variation ([2]; 1 mg/kg): +1.7% | Cardiac Cycle, percentage of variation ([2]; 5 mg/kg): +5.1% | HV (HissPurkinje conduction), percentage of variation ([2]; 5 mg/kg): +20.9% | PREA (Effective auricular refractory period), percentage of variation ([2]; 5 mg/kg): +16% | PREV (Effective ventricular refractory period), percentage of variation ([2]; 5 mg/kg): +2.8% | PRFN (Functional nodal refractory period), percentage of variation ([2]; 5 mg/kg): +5.5% | QRS (Intraventricular conduction), percentage of variation ([2]; 5 mg/kg): +14.4% | QTc (Corrected repolarization time), percentage of variation ([2]; 5 mg/kg): +7% | SH (AuriculoHissian conduction), percentage of variation ([2]; 5 mg/kg): +3.8% | Cardiac Cycle, percentage of variation ([2]; 10 mg/kg): +14. % | HV (HissPurkinje conduction), percentage of variation ([2]; 10 mg/kg): +32.8% | PREA (Effective auricular refractory period), percentage of variation ([2]; 10 mg/kg): +23.7% | PREV (Effective ventricular refractory period), percentage of variation ([2]; 10 mg/kg): +6.5% | PRFN (Functional nodal refractory period), percentage of variation ([2]; 10 mg/kg): +12.6% | QRS (Intraventricular conduction), percentage of variation ([2]; 10 mg/kg): +22% | QTc (Corrected repolarization time), percentage of variation ([2]; 10 mg/kg): +6% | SH (AuriculoHissian conduction), percentage of variation ([2]; 10 mg/kg): +15% | cardiac frequency (in words) ([2]; compared with quinidine): slows cardiac frequency like quinidine | cardiac refractory periods, level of the auricles (in words) ([2]; compared with quinidine): greater than those of quinidine | cardiac refractory periods, ventricular and nodal stage (in words) ([2]; compared with quinidine): effects equivalent to those of quinidine | conduction in the His-Purkinje system (in words) ([2]; compared with quinidine): effects greater than those of quinidine | conduction between the auricles and the trunk of the His fasciculus (in words) ([2]; dog, in vivo): slightly changes conduction | ED50 ([4]; Mus musculus, ip, mice, I.P., read-out: ED 50 (dose which protects half of the mice against anoxic ventricular fibrillation)): 72.5 mg/kg | antifibrillatory efficacity (in words) ([4]; compared with quinidine): comparable to that of quinidine | protective effect against arrhythmia (in words) (arrhythmia; compared with quinidine): greater than that of quinidine | activity in the test with aconitine (in words) (arrhythmia; compared with quinidine, quantitative level): considerably more active than quinidine | Appearance Time, ESV (ventricular extrasystoles) (arrhythmia; rats, I.V., 10 mg/kg): 208 min | Appearance Time, TV (ventricular tachycardium) (arrhythmia; rats, I.V., 10 mg/kg): 253 min | Appearance Time, FV (ventricular fibrillation) (arrhythmia; rats, I.V., 10 mg/kg): 504 min | Appearance Time, ESV (ventricular extrasystoles), % (arrhythmia; rats, I.V., 10 mg/kg): +112% | Appearance Time, TV (ventricular tachycardium), % (arrhythmia; rats, I.V., 10 mg/kg): +125% | Appearance Time, FV (ventricular fibrillation), % (arrhythmia; rats, I.V., 10 mg/kg, vs control 228): +121% | decrease in ventricular arrhythmia (in words) (ventricular arrhythmia; 6 mg/kg, compared with quinidine): greater with the compound of the present invention than with quinidine | % Protection (ventricular arrhythmia; 6 mg/kg, 1 h, Exp. 1): 65% | % Protection (ventricular arrhythmia; 6 mg/kg, 1 h, Exp. 2): 39% | % Protection, Average (ventricular arrhythmia; 6 mg/kg, 1 h): 52% | % Protection (ventricular arrhythmia; +10 mg/kg, 1 h, Exp. 1): 72% | % Protection (ventricular arrhythmia; +10 mg/kg, 1 h, Exp. 2): 42% | % Protection, Average (ventricular arrhythmia; +10 mg/kg, 1 h): 57% | % Protection (ventricular arrhythmia; +10 mg/kg, 2 h, Exp. 1): 97% | % Protection (ventricular arrhythmia; +10 mg/kg, 2 h, Exp. 2): 41% | % Protection, Average (ventricular arrhythmia; +10 mg/kg, 2 h): 69% | efficacity (in words) (ventricular arrhythmia; higher doses, compared with quinidine): comparable for higher doses
